Experimental data reported in patent publication US8772449B2, “Cell-penetrating peptides” (Toray Industries, Inc., priority 2009, dated 2014).
Like-named read-outs stand apart in the source and are kept apart here. Ends that are not written are not given here.

What was measured:
[1] = Intestinal administration of insulin with peptide (ileal loop) to rats; format: in vivo; details: Example 8, insulin 50 IU/kg with 0.5 mM peptide, male SD rat, FIG. 10
Method: A silicone tube was […] cm distant from the ileocecal junction toward the ileum, and a feeding needle was inserted at a position about 10 cm upward therefrom. Further, sutures were passed through an area of 6 cm between these. From the feeding needle, 20 ml of phosphate buffered saline (PBS) at pH 7.4 prewarmed to 37° C. was fed at a flow rate of 5 ml/min. to allow discharging of the contents, and the silicone tube was plugged, followed by administering 1 ml of PBS prewarmed to 37° C. from the feeding needle and keeping it retained for 30 minutes. After the administration, the feeding needle was quickly plugged and the intestinal tract was returned into the abdominal cavity, followed by closing the site of incision with a clip and allowing the rat to keep still. […] The rat during the experiment was fixed on its back on a hot plate kept at 37° C. by a hot-water circulating pump to regulate the body temperature. […] Also for rats to which the same quantity of the insulin solution alone was subcutaneously administered, the blood collection and the measurement were carried out in the same manner.

nasal cavity = assay: Evaluation of damage to nasal cavity (LDH leakage into washing solution); details: Example 9; mixed solution of peptide and insulin, intranasal, washing 15 minutes later, FIG. 11
[2] = Intranasal administration of exendin-4 with peptide to rats (plasma exendin-4 level); details: Example 7, exendin-4 0.25 mg/kg alone or with 0.5 mM peptide, FIG. 8
[3] = Intranasal administration of interferon β with peptide to rats (plasma interferon β level); details: Example 6, interferon β 0.18×10^6 IU/kg alone or with 0.5 mM peptide, FIG. 7
[4] = Intranasal administration of insulin with peptide to rats (blood glucose, plasma insulin, bioavailability, AUC); details: Example 4, insulin 1 IU/kg alone or mixed with 0.5 mM peptide (L-body), male SD rat, FIG. 5
HeLa cells [5] = assay: Evaluation of peptide permeability into cells (fluorescein-labeled peptide incorporated into HeLa cells); format: cell-based
Method: In DMEM medium supplemented with 10% FBS, 0.2 ml of HeLa cells were plated on a 96-well glass bottom plate, and the cells were cultured at 37° C. for 48 to 72 hours to allow the cells to adhere to the bottom surface. After 3 times of washing with 200 μl of PBS, 50 μl of DMEM medium containing each of the peptides of SEQ ID NOs:1 to 6 labeled with fluorescein at the amino terminus (contract synthesis by Sigma-Genosys) at a final concentration of 5 μM and FBS at a final concentration of 10% was added to each well. The plate was incubated in a CO2 incubator for 3 hours and then washed 3 times with DMEM medium supplemented with 10% FBS, followed by addition of 50 μl of a lysis solution (10 mM Tris-HCl, 5 mM EDTA, 100 mM NaCl, 1% SDS, 100 μg/ml proteinase K) and 1 hour of incubation at room temperature, to decompose the cells and the peptides incorporated into the cells. The whole lysis solution was recovered, and the amount of fluorescein incorporated into the cells was measured using a fluorescence intensity measuring apparatus (HORIBA FLUOROMAX-3) at an excitation wavelength of 494 nm and a fluorescence wavelength of 512 nm.
(§1) Further, the amount of fluorescein incorporated into the cells was measured by the same method as in Example 1.

HeLa cells [6] = assay: Evaluation of promotion of insulin transfer into cells (rhodamine-labeled insulin incorporated, fluorescence intensity of lysate); format: cell-based; details: for incorporation of rhodamine-labeled insulin into the cells (in words): Example 2, rhodamine-labeled human insulin 100 μg/ml alone or with peptide, 3 hours, FIG. 2
Method: In DMEM medium supplemented with 10% FBS, 0.2 ml of HeLa cells were plated on a 96-well glass bottom plate, and the cells were cultured at 37° C. for 48 to 72 hours to allow the cells to adhere to the bottom surface.
(§2) The rhodamine-labeled insulin was prepared by the following method. […] To the resulting solution, 4 mg of NHS-rhodamine (Pierce) dissolved in 0.5 ml of DMSO was added, and the reaction was allowed to proceed at room temperature overnight.
as §1

HeLa cells [7] = assay: Localization of rhodamine-labeled insulin in HeLa cells by confocal laser microscope; format: cell-based; details: Example 2, peptide added together with rhodamine-labeled insulin, FIG. 12
Method: as §2

HeLa cells [8] = assay: Evaluation of promotion of transfer of polystyrene beads into cells; format: cell-based; details: Example 3, beads alone or with peptide 1 μM, 3 hours, FIG. 3
Method: In DMEM medium supplemented with 10% FBS, 0.2 ml of HeLa cells were plated on a 96-well glass bottom plate, and the cells were cultured at 37° C. for 48 to 72 hours to allow the cells to adhere to the bottom surface. After 3 times of washing with 200 μl of PBS, 50 μl of DMEM medium containing each of the peptides of SEQ ID NOs:1 to 6 labeled with fluorescein at the amino terminus (contract synthesis by Sigma-Genosys) at a final concentration of 1 μM, fluorescent polystyrene beads (Fluorospheres Carboxylated Microbeads, 0.1 μm; manufactured by Molecular probes, Inc.) at a final concentration of 1 μl/well and 10% FBS was added to each well. The plate was incubated in a CO2 incubator for 3 hours and then washed 3 times with DMEM medium supplemented with 10% FBS, followed by addition of 50 μl of a lysis solution (10 mM Tris-HCl, 5 mM EDTA, 100 mM NaCl, 1% SDS, 100 μg/ml proteinase K) and 1 hour of incubation at room temperature, to decompose the cells. The whole lysis solution was recovered, and the amount of fluorescent polystyrene beads incorporated into the cells was measured using a fluorescence intensity measuring apparatus at an excitation wavelength of 580 nm and a fluorescence wavelength of 605 nm.

[9] = rat, in vivo, 0.25 mg/kg

RWFKIQMQIRRWKNKK [SEQ ID NO:1, R W F K I Q M Q I R R W K N K K]
blood insulin level after intestinal administration, compared to insulin alone [1]: evident increase
release of LDH from the nasal cavity, compared to 5% (w/v) sodium taurodeoxycholate (nasal cavity): significantly lower
plasma exendin-4 level after intranasal administration [2]: transfer of exendin-4 into the blood from immediately after the administration
plasma interferon β level after intranasal administration [3]: transfer of interferon β into the blood from immediately after the administration
blood insulin level after intranasal administration [4]: transfer of insulin into the blood was observed from immediately after the administration

SEQ ID NO:6: Random peptide, cell membrane non-permeable; sequence not printed (EYDLSTAGGAAAC; Synthetic peptide random peptide)
incorporation of fluorescein-labeled peptide into the cells (in words) (HeLa cells [5]; Example 1, fluorescein-labeled peptide 5 μM, 3 hours, FIG. 1): hardly incorporated into the cells
fluorescein incorporated into the cells, of the fluorescein added (HeLa cells [5]; Example 12, fluorescein-labeled peptides, incubation 5 hours, FIG. 15): about 0.2%
incorporation of rhodamine-labeled insulin into the cells (in words) (HeLa cells [6]): almost no incorporation
rhodamine-labeled insulin incorporated into the cells, of the amount added (HeLa cells [6]; Example 12, fluorescein-labeled peptides added together with rhodamine-labeled insulin, incubation 5 hours, FIG. 16): about 0.2%
permeation of rhodamine-labeled insulin into the cells, confocal laser microscope (HeLa cells [7]): did not allow permeation
incorporation of fluorescent polystyrene beads into the cells (in words) (HeLa cells [8]): almost no incorporation

exendin-4
plasma exendin-4 level after intranasal administration [9]: almost no increase

KWFRIQMQIKKWRNRR [SEQ ID NO:4]
blood insulin level after intestinal administration, compared to insulin alone [1]: evident increase
plasma interferon β level after intranasal administration [3]: transfer of interferon β into the blood from immediately after the administration

rhodamine-labeled insulin: human insulin reacted with NHS-rhodamine (Pierce); fluorescent probe, added alone
incorporation of rhodamine-labeled insulin into the cells (in words) (HeLa cells [6]): almost no incorporation
